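All cell lines were grown in 96-well plates and treated with compound for 48 hours. GI50 = concentration required for 50% inhibition of growth. The concentration for full growth arrest is given as TGI.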
Tests used:
Assay in all cases: NCI tumour cell line growth inhibition, 48 h
[1] = system: SF-539 CNS
[2] = system: OVCAR-5 ovarian
[3] = system: SF-295 CNS
[4] = system: NCI-H522 lung
[5] = system: COLO 205 colon
[6] = system: RPMI-8226 leukemia
[7] = system: DMS 273 small cell lung
[8] = system: SK-MEL-2 melanoma
[9] = system: PC-3 prostate
[10] = system: MDA-N

Question: What does the source list for `CCCCCCCCCCC(C)CCCCCCC(=O)O` (stereo not drawn)?
Answer: TGI [1]: > 100 µM; TGI [2]: > 100 µM; TGI [3]: > 100 µM; TGI [4]: > 100 µM; TGI [5]: > 100 µM; TGI [6]: > 100 µM; TGI [7]: > 100 µM; TGI [8]: > 100 µM

Question: Which results are given for `CCN(CC)CCNC(=O)c1cccc2nc3ccccc3nc12`?
Answer: TGI [1]: 28.8 µM; TGI [2]: 41.6 µM; TGI [3]: > 38.1 µM; TGI [4]: > 100 µM; TGI [5]: > 41.4 µM; TGI [6]: > 100 µM; TGI [7]: > 100 µM; TGI [8]: 28.2 µM

Question: With `O=C(CC/C(CC(=O)c1ccc(Br)cc1)=N\O)Nc1ccc(Cl)c(Cl)c1` as the compound, how does the TGI [1] read?
Answer: > 100 µM

Question: And the TGI [2]?
Answer: > 100 µM

Question: And the TGI [3]?
Answer: > 100 µM

Question: And the TGI [4]?
Answer: 53.5 µM

Question: And the TGI [5]?
Answer: > 100 µM

Question: And the TGI [6]?
Answer: > 100 µM

Question: What about the TGI [7] of the same compound?
Answer: > 100 µM

Question: And the TGI [8]?
Answer: > 100 µM

Question: For `CN(C)CC/C(=N\Nc1ccc(Cl)cc1Cl)c1ccccc1`, which TGI [1] is on record?
Answer: 35 µM

Question: And the TGI [2]?
Answer: 30.7 µM

Question: What about the TGI [3] of the same compound?
Answer: 32.9 µM

Question: What about the TGI [5] of the same compound?
Answer: 29.2 µM

Question: What about the TGI [6] of the same compound?
Answer: 17.1 µM

Question: And the TGI [7]?
Answer: 27 µM

Question: What about the TGI [8] of the same compound?
Answer: 28.6 µM

Question: With `CCC[CH2][Sn]1([CH2]CCC)[O]CC(C)[O]1` (stereo not drawn) as the compound, how does the GI50 [1] read?
Answer: 1.46 µM

Question: What about the TGI [1] of the same compound?
Answer: 3.46 µM

Question: What about the GI50 [2] of the same compound?
Answer: 2.03 µM

Question: And the TGI [2]?
Answer: 7.45 µM

Question: What about the GI50 [3] of the same compound?
Answer: 1.4 µM

Question: And the TGI [3]?
Answer: 2.74 µM

Question: And the GI50 [4]?
Answer: 0.306 µM

Question: What about the TGI [4] of the same compound?
Answer: 1.07 µM

Question: And the GI50 [5]?
Answer: 1.01 µM

Question: And the TGI [5]?
Answer: 2.29 µM

Question: And the GI50 [6]?
Answer: 0.309 µM

Question: And the TGI [6]?
Answer: 2.07 µM

Question: What about the GI50 [7] of the same compound?
Answer: 1.26 µM

Question: What about the TGI [7] of the same compound?
Answer: 2.66 µM

Question: And the GI50 [8]?
Answer: 0.54 µM

Question: What about the TGI [8] of the same compound?
Answer: 1.83 µM

Question: How did the TGI [1] turn out when `NNC(=O)C(=O)N/N=C(\CCC(=O)Nc1ccc(Cl)cc1)Cc1nc2ccccc2s1` was run?
Answer: 90.4 µM

Question: What about the TGI [2] of the same compound?
Answer: > 100 µM

Question: And the TGI [3]?
Answer: > 100 µM

Question: And the TGI [4]?
Answer: 40.8 µM

Question: And the TGI [5]?
Answer: > 100 µM

Question: And the TGI [6]?
Answer: > 100 µM

Question: And the TGI [7]?
Answer: 67.8 µM

Question: What about the TGI [8] of the same compound?
Answer: > 100 µM

Question: `N.N.O=P([O-])([O-])C1(P(=O)([O-])[O-])CCCCCN1.[Pt+2]` was tested. Which GI50 [1] did it give?
Answer: 31.9 µM

Question: What about the TGI [1] of the same compound?
Answer: > 100 µM

Question: And the GI50 [3]?
Answer: > 100 µM

Question: What about the TGI [3] of the same compound?
Answer: > 100 µM

Question: And the GI50 [4]?
Answer: > 100 µM

Question: What about the TGI [4] of the same compound?
Answer: > 100 µM

Question: What about the GI50 [5] of the same compound?
Answer: > 100 µM

Question: And the TGI [5]?
Answer: > 100 µM

Question: And the GI50 [6]?
Answer: > 100 µM

Question: What about the TGI [6] of the same compound?
Answer: > 100 µM

Question: What about the GI50 [7] of the same compound?
Answer: > 100 µM

Question: And the TGI [7]?
Answer: > 100 µM

Question: And the GI50 [8]?
Answer: > 100 µM

Question: What about the TGI [8] of the same compound?
Answer: > 100 µM

Question: Which results are given for `O=C(CCC(=O)C1CCC/C1=N/O)Nc1ccc(Cl)cc1` (stereo not drawn)?
Answer: TGI [1]: > 100 µM; TGI [2]: > 100 µM; TGI [3]: > 100 µM; TGI [4]: > 100 µM; TGI [5]: > 100 µM; TGI [6]: > 100 µM; TGI [7]: > 100 µM; TGI [8]: > 100 µM

Question: For `Cn1cccc1/C=C/c1cc(Br)c(/C=C/c2cccn2C)cc1Br`, which TGI [1] is on record?
Answer: 31.5 µM

Question: What about the TGI [2] of the same compound?
Answer: > 100 µM

Question: What about the TGI [3] of the same compound?
Answer: 52.8 µM

Question: What about the TGI [4] of the same compound?
Answer: 28.3 µM

Question: What about the TGI [5] of the same compound?
Answer: 55 µM

Question: And the TGI [6]?
Answer: 41.3 µM

Question: What about the TGI [7] of the same compound?
Answer: 38.3 µM

Question: What about the TGI [8] of the same compound?
Answer: 37.2 µM

Question: How did the GI50 [1] turn out when `Cc1ccc([C@]2(C)CC[C@H](C)/C2=C\Br)c(O)c1` was run?
Answer: 1.85 µM

Question: What about the TGI [1] of the same compound?
Answer: 4.17 µM

Question: And the GI50 [2]?
Answer: 6.3 µM

Question: And the TGI [2]?
Answer: 18.6 µM

Question: What about the GI50 [3] of the same compound?
Answer: 3.4 µM

Question: And the TGI [3]?
Answer: 11.6 µM

Question: And the GI50 [4]?
Answer: 3.24 µM

Question: What about the TGI [4] of the same compound?
Answer: 12 µM

Question: What about the GI50 [9] of the same compound?
Answer: 4.2 µM

Question: And the TGI [9]?
Answer: 17.7 µM

Question: What about the GI50 [5] of the same compound?
Answer: 2.49 µM

Question: What about the TGI [5] of the same compound?
Answer: 6.14 µM

Question: What about the GI50 [10] of the same compound?
Answer: 2.74 µM

Question: What about the TGI [10] of the same compound?
Answer: 10.3 µM

Question: And the GI50 [6]?
Answer: 3.21 µM

Question: What about the TGI [6] of the same compound?
Answer: 24.7 µM

Question: And the GI50 [8]?
Answer: 2.82 µM

Question: What about the TGI [8] of the same compound?
Answer: 17.9 µM

Question: With `COc1ccccc1C(=O)N(C)c1ccc(Cl)c(C(=O)OC(C)C)c1` as the compound, how does the TGI [1] read?
Answer: > 100 µM

Question: What about the TGI [2] of the same compound?
Answer: > 100 µM

Question: And the TGI [3]?
Answer: 94.5 µM

Question: And the TGI [4]?
Answer: > 100 µM

Question: And the TGI [9]?
Answer: > 100 µM

Question: And the TGI [5]?
Answer: > 100 µM

Question: And the TGI [10]?
Answer: > 100 µM

Question: What about the TGI [6] of the same compound?
Answer: > 100 µM

Question: And the TGI [8]?
Answer: > 100 µM

Question: What does the source list for `CC1(C)CC(N(C(=O)/C=C/c2ccc([N+](=O)[O-])o2)C2CCCCC2)CC(C)(C)N1`?
Answer: TGI [1]: 21.8 µM; TGI [2]: 38.4 µM; TGI [3]: 26.4 µM; TGI [4]: 21.2 µM; TGI [6]: 12.9 µM; TGI [7]: 18 µM

Question: Which TGI [1] does the source give for `CC(C)=CC(=O)Cc1nc2ccc([N+](=O)[O-])cc2[nH]c1=O` here?
Answer: > 100 µM

Question: What about the TGI [2] of the same compound?
Answer: > 100 µM

Question: And the TGI [3]?
Answer: > 100 µM

Question: And the TGI [4]?
Answer: > 100 µM

Question: What about the TGI [5] of the same compound?
Answer: > 100 µM

Question: And the TGI [6]?
Answer: > 100 µM

Question: And the TGI [7]?
Answer: > 100 µM

Question: And the TGI [8]?
Answer: > 100 µM

Question: Which results are given for `COC(=O)c1nn(C(=N)c2ccc(Cl)cc2)c2c1CCC2`?
Answer: TGI [1]: > 100 µM; TGI [2]: > 100 µM; TGI [3]: > 100 µM; TGI [4]: > 100 µM; TGI [5]: > 100 µM; TGI [6]: > 100 µM; TGI [7]: > 100 µM; TGI [8]: > 100 µM

Question: What does the source list for `Brc1cc2c(cc1Br)CN(c1ccccc1)C2`?
Answer: TGI [1]: > 100 µM; TGI [2]: > 100 µM; TGI [3]: > 100 µM; TGI [5]: > 100 µM; TGI [6]: > 100 µM; TGI [7]: > 100 µM; TGI [8]: > 100 µM

Question: What does the source list for `O=C(O)c1cc2ccccc2c2c1C(=O)c1ccccc1-2`?
Answer: TGI [1]: > 100 µM; TGI [2]: > 100 µM; TGI [3]: > 100 µM; TGI [4]: > 100 µM; TGI [9]: > 100 µM; TGI [5]: > 100 µM; TGI [10]: > 100 µM; TGI [6]: > 100 µM; TGI [8]: > 100 µM

Question: Which results are given for `Oc1c(CN2CCN(c3ccccc3)CC2)cc(Br)c2cccnc12`?
Answer: TGI [1]: > 28.6 µM; TGI [2]: > 67.4 µM; TGI [3]: > 95 µM; TGI [4]: 36.8 µM; TGI [9]: 32.5 µM; TGI [5]: > 100 µM; TGI [10]: > 100 µM; TGI [6]: > 40.4 µM; TGI [8]: 42 µM

Question: With `CN(C)C(=O)Oc1c(-c2ccccc2)c(=O)n2c3ccccc3n3c(=O)n(C)c(=O)c1c23` as the compound, how does the TGI [1] read?
Answer: > 100 µM

Question: What about the TGI [2] of the same compound?
Answer: > 100 µM

Question: What about the TGI [3] of the same compound?
Answer: > 100 µM

Question: And the TGI [5]?
Answer: > 100 µM

Question: What about the TGI [6] of the same compound?
Answer: > 100 µM

Question: And the TGI [7]?
Answer: > 100 µM

Question: And the TGI [8]?
Answer: > 100 µM

Question: What does the source list for `C[C@]12CCC(=O)C=C1CC[C@@H]1C2CC[C@]2(C)c3nn(-c4ccccc4)nc3CC12` (stereo partly drawn)?
Answer: TGI [1]: > 100 µM; TGI [2]: > 100 µM; TGI [3]: > 100 µM; TGI [5]: > 100 µM; TGI [6]: > 100 µM; TGI [7]: > 100 µM; TGI [8]: > 100 µM
